# According to patent publication US7304079B2, “Substituted indolealkanoic acids” (The Institute for Pharmaceutical Discovery, LLC, priority 1998, dated 2007):
# pIC50: −log10 of the molar value.
# Target: T1, human aldehyde reductase (hALR1) (Homo sapiens, UniProt P14550)
# T1 sequence (P14550 1-325): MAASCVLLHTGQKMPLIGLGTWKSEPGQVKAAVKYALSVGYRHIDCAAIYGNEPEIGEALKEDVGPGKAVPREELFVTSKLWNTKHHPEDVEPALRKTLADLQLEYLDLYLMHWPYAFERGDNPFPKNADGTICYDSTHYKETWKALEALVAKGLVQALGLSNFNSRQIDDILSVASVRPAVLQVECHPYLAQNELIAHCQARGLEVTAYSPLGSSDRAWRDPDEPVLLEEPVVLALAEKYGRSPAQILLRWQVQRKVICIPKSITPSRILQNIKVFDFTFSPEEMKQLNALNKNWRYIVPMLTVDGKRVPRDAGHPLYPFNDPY
# Test: human aldehyde reductase (hALR1) inhibition
# Assay type: biochemical
# Protocol: In a second assay, a number of the same compounds were tested for their ability to inhibit aldehyde reductase (hALR1), a structurally related enzyme.
smiles,measurement,value
"O=C(O)Cn1cc(Cc2nc3c(F)c(F)cc(F)c3s2)c2ccc(N3CCOCC3)cc21 [Example 18, 6-morpholino-3-(4,5,7-trifluorobenzothiazol-2-yl)methyl-indole-N-acetic acid]",pIC50,< 7.00
